Measured values taken from patent US20140073700A1, “[…] ACID DERIVATIVES AND METHODS OF USE THEREOF” (AbbVie Inc., priority 2012, published 2014).

System: IFNγ-Induced NO Production in RAW 264.7 cells
Experiment: Nitric Oxide Suppression Assay (suppression of IFNγ-induced NO production)
Assay type: cell-based
Settings: RAW264.7; RAW 264.7 mouse macrophage cells, 20 ng/mL interferon gamma, Griess detection; single curve fit to mean data of n=2-3
Experimental: RAW 264.7, a mouse macrophage cell line, was obtained from American Type Culture Collection (Manassas Va.) and maintained in the log phase of growth in Dulbecco's Modified Eagle's Medium (DMEM), 10% heat inactivated fetal calf serum and 100 units/mL antibiotic-antimycotic (AA). Cells were cultured and maintained in a humidified incubator at 37° C. under 5% CO2 and 95% air. Cells were sub-cultured every 3 days by scraping and were not used beyond passage 20. All cell culture supplies were obtained from Life Technologies (Grand Island, N.Y.).
RAW 264.7 cells were plated 1 day in advance of experiment at a concentration of 80,000 cells/well onto CellBIND® 96 well plates (Corning, N.Y.) in a total volume of 100 μL. The next day, pre-treat cells with compounds (from 3 μM to 0.3 nM serially diluted in a 10 point curve) from a 10× stock by adding 10 μL per well in complete DMEM media containing 10% fetal calf serum. The plates were centrifuged for 3 minutes at 400×g at room temperature followed by 2 hour incubation at 37° C. The cells were then incubated overnight at 37° C. with 10 μL of the insult, interferon gamma (R&D Systems, Minneapolis, Minn.), from a 10× stock for a final concentration of 20 ng/mL. The plates were centrifuged for 3 minutes at 400×g at room temperature followed by 18 hour incubation at 37° C. The following day, transfer 50 μL cell culture supernatant from each well into a clear bottom 96 well plate and follow the instructions from Promega's Griess Detection Kit #G2930 (Madison, Wis.) which involves the addition of 50 μL of the provided sulfanilamide solution for a 5-10 minute incubation at room temperature. Next add 50 μL of the provided N-1-napthylethylenediamine dihydrochloride (NED) solution for a 5-10 minute incubation at room temperature and protected from light. If any air bubbles were introduced into the well, the plates need to be centrifuged for 5 minutes at 400×g at room temperature to avoid interference with absorbance readings. The plates were read for absorbance within 30 minutes with a filter between 520 nm and 550 nm.
For the ability of compounds to suppress the increase in nitric oxide release, the percent maximal intensity of nitric oxide detected in each well was normalized to that induced by the peak value for 20 ng/mL of interferon gamma alone and plotted against the compound concentration to calculate IC50 values and to control for plate-to-plate variability. Concentration-response data were analyzed using GraphPad Prism (San Diego, Calif.); the IC50 values were derived from a single curve fit to the mean data of n=2-3, in duplicates.
All compounds were dissolved in dimethyl sulfoxide at 10 mM stock solutions and tested at a concentration that the dimethyl sulfoxide levels never exceeded 1%.

| SMILES | IC50 |
| --- | --- |
| COC(=O)[C@@]1(C)CC[C@]2(C)CC[C@@]3(C)[C@]4(C)CC[C@H]5C(C)(C)C(=O)C(C#N)=C[C@]5(C)C4=CC(=O)[C@]3(O)[C@@H]2C1 [Example 1, (2S,4aS,6aS,6bR,8aR,12aS,14aS,14bR)-methyl 11-cyano-14a-hydroxy-2,4a,6a,6b,9,9,12a-heptamethyl-10,14-dioxo-1,2,3,4,4a,5,6,6a,6b,7,8,8a,9,10,12a,14,14a,14b-octadecahydropicene-2-carboxylate] | 16.1 nM |
| COC(=O)[C@@]1(C)CC[C@]2(C)CC[C@]3(C)[C@H](C(=O)C=C4[C@@]5(C)C=C(C#N)C(=O)C(C)(C)[C@@H]5CC[C@]43C)[C@@H]2C1 [Example 2, (2S,4aS,6aR,6bS,8aR,12aS,14aR,14bS)-methyl 11-cyano-2,4a,6a,6b,9,9,12a-heptamethyl-10,14-dioxo-1,2,3,4,4a,5,6,6a,6b,7,8,8a,9,10,12a,14,14a,14b-octadecahydropicene-2-carboxylate] | 201 nM |
| CC1(C)C(=O)C(C#N)=C[C@]2(C)C3=CC(=O)[C@]4(O)[C@@H]5C[C@@](C)(C(=O)NCc6cnco6)CC[C@]5(C)CC[C@@]4(C)[C@]3(C)CC[C@@H]12 [Example 3, (2S,4aS,6aS,6bR,8aR,12aS,14aS,14bR)-11-cyano-14a-hydroxy-2,4a,6a,6b,9,9,12a-heptamethyl-N-(1,3-oxazol-5-ylmethyl)-10,14-dioxo-1,2,3,4,4a,5,6,6a,6b,7,8,8a,9,10,12a,14,14a,14b-octadecahydropicene-2-carboxamide] | 14.6 nM |
| CC1(C)C(=O)C(C#N)=C[C@]2(C)C3=CC(=O)[C@]4(O)[C@@H]5C[C@@](C)(C(=O)O)CC[C@]5(C)CC[C@@]4(C)[C@]3(C)CC[C@@H]12 [Example 3D, (2S,4aS,6aS,6bR,8aR,12aS,14aS,14bR)-11-cyano-14a-hydroxy-2,4a,6a,6b,9,9,12a-heptamethyl-10,14-dioxo-1,2,3,4,4a,5,6,6a,6b,7,8,8a,9,10,12a,14,14a,14b-octadecahydropicene-2-carboxylic acid] | 301 nM |
| CC1(C)C(=O)C(C#N)=C[C@]2(C)C3=CC(=O)[C@]4(O)[C@@H]5C[C@@](C)(C(=O)NCCO)CC[C@]5(C)CC[C@@]4(C)[C@]3(C)CC[C@@H]12 [Example 4, (2S,4aS,6aS,6bR,8aR,12aS,14aS,14bR)-11-cyano-14a-hydroxy-N-(2-hydroxyethyl)-2,4a,6a,6b,9,9,12a-heptamethyl-10,14-dioxo-1,2,3,4,4a,5,6,6a,6b,7,8,8a,9,10,12a,14,14a,14b-octadecahydropicene-2-carboxamide] | 55.4 nM |
| CC1(C)C(=O)C(C#N)=C[C@]2(C)C3=CC(=O)[C@]4(O)[C@@H]5C[C@@](C)(C(=O)NCc6ccnnc6)CC[C@]5(C)CC[C@@]4(C)[C@]3(C)CC[C@@H]12 [Example 5, (2S,4aS,6aS,6bR,8aR,12aS,14aS,14bR)-11-cyano-14a-hydroxy-2,4a,6a,6b,9,9,12a-heptamethyl-10,14-dioxo-N-(pyridazin-4-ylmethyl)-1,2,3,4,4a,5,6,6a,6b,7,8,8a,9,10,12a,14,14a,14b-octadecahydropicene-2-carboxamide] | 50 nM |
| CCCN(C)C(=O)[C@@]1(C)CC[C@]2(C)CC[C@@]3(C)[C@]4(C)CC[C@H]5C(C)(C)C(=O)C(C#N)=C[C@]5(C)C4=CC(=O)[C@]3(O)[C@@H]2C1 [Example 6, (2S,4aS,6aS,6bR,8aR,12aS,14aS,14bR)-11-cyano-14a-hydroxy-N,2,4a,6a,6b,9,9,12a-octamethyl-10,14-dioxo-N-propyl-1,2,3,4,4a,5,6,6a,6b,7,8,8a,9,10,12a,14,14a,14b-octadecahydropicene-2-carboxamide] | 35.5 nM |
| CC(C)(C)CNC(=O)[C@@]1(C)CC[C@]2(C)CC[C@@]3(C)[C@]4(C)CC[C@H]5C(C)(C)C(=O)C(C#N)=C[C@]5(C)C4=CC(=O)[C@]3(O)[C@@H]2C1 [Example 7, (2S,4aS,6aS,6bR,8aR,12aS,14aS,14bR)-11-cyano-N-(2,2-dimethylpropyl)-14a-hydroxy-2,4a,6a,6b,9,9,12a-heptamethyl-10,14-dioxo-1,2,3,4,4a,5,6,6a,6b,7,8,8a,9,10,12a,14,14a,14b-octadecahydropicene-2-carboxamide] | 22.4 nM |
| CC1(C)C(=O)C(C#N)=C[C@]2(C)C3=CC(=O)[C@]4(O)[C@@H]5C[C@@](C)(C(=O)NCc6cccnn6)CC[C@]5(C)CC[C@@]4(C)[C@]3(C)CC[C@@H]12 [Example 8, (2S,4aS,6aS,6bR,8aR,12aS,14aS,14bR)-11-cyano-14a-hydroxy-2,4a,6a,6b,9,9,12a-heptamethyl-10,14-dioxo-N-(pyridazin-3-ylmethyl)-1,2,3,4,4a,5,6,6a,6b,7,8,8a,9,10,12a,14,14a,14b-octadecahydropicene-2-carboxamide] | 27.9 nM |
| Cn1cc(CNC(=O)[C@@]2(C)CC[C@]3(C)CC[C@@]4(C)[C@]5(C)CC[C@H]6C(C)(C)C(=O)C(C#N)=C[C@]6(C)C5=CC(=O)[C@]4(O)[C@@H]3C2)cn1 [Example 9, (2S,4aS,6aS,6bR,8aR,12aS,14aS,14bR)-11-cyano-14a-hydroxy-2,4a,6a,6b,9,9,12a-heptamethyl-N-[(1-methyl-1H-pyrazol-4-yl)methyl]-10,14-dioxo-1,2,3,4,4a,5,6,6a,6b,7,8,8a,9,10,12a,14,14a,14b-octadecahydropicene-2-carboxamide] | 12.8 nM |
| CC1(C)C(=O)C(C#N)=C[C@]2(C)C3=CC(=O)[C@]4(O)[C@@H]5C[C@@](C)(C(=O)NCCN6CCOCC6)CC[C@]5(C)CC[C@@]4(C)[C@]3(C)CC[C@@H]12 [Example 10, (2S,4aS,6aS,6bR,8aR,12aS,14aS,14bR)-11-cyano-14a-hydroxy-2,4a,6a,6b,9,9,12a-heptamethyl-N-[2-(morpholin-4-yl)ethyl]-10,14-dioxo-1,2,3,4,4a,5,6,6a,6b,7,8,8a,9,10,12a,14,14a,14b-octadecahydropicene-2-carboxamide] | 23.9 nM |
| Cc1ccccc1CNC(=O)[C@@]1(C)CC[C@]2(C)CC[C@@]3(C)[C@]4(C)CC[C@H]5C(C)(C)C(=O)C(C#N)=C[C@]5(C)C4=CC(=O)[C@]3(O)[C@@H]2C1 [Example 11, (2S,4aS,6aS,6bR,8aR,12aS,14aS,14bR)-11-cyano-14a-hydroxy-2,4a,6a,6b,9,9,12a-heptamethyl-N-(2-methylbenzyl)-10,14-dioxo-1,2,3,4,4a,5,6,6a,6b,7,8,8a,9,10,12a,14,14a,14b-octadecahydropicene-2-carboxamide] | 140 nM |
| Cn1ccc(CNC(=O)[C@@]2(C)CC[C@]3(C)CC[C@@]4(C)[C@]5(C)CC[C@H]6C(C)(C)C(=O)C(C#N)=C[C@]6(C)C5=CC(=O)[C@]4(O)[C@@H]3C2)n1 [Example 12, (2S,4aS,6aS,6bR,8aR,12aS,14aS,14bR)-11-cyano-14a-hydroxy-2,4a,6a,6b,9,9,12a-heptamethyl-N-[(1-methyl-1H-pyrazol-3-yl)methyl]-10,14-dioxo-1,2,3,4,4a,5,6,6a,6b,7,8,8a,9,10,12a,14,14a,14b-octadecahydropicene-2-carboxamide] | 14.1 nM |
| COc1ccccc1CNC(=O)[C@@]1(C)CC[C@]2(C)CC[C@@]3(C)[C@]4(C)CC[C@H]5C(C)(C)C(=O)C(C#N)=C[C@]5(C)C4=CC(=O)[C@]3(O)[C@@H]2C1 [Example 13, (2S,4aS,6aS,6bR,8aR,12aS,14aS,14bR)-11-cyano-14a-hydroxy-N-(2-methoxybenzyl)-2,4a,6a,6b,9,9,12a-heptamethyl-10,14-dioxo-1,2,3,4,4a,5,6,6a,6b,7,8,8a,9,10,12a,14,14a,14b-octadecahydropicene-2-carboxamide] | 60.7 nM |
| CCC(O)CNC(=O)[C@@]1(C)CC[C@]2(C)CC[C@@]3(C)[C@]4(C)CC[C@H]5C(C)(C)C(=O)C(C#N)=C[C@]5(C)C4=CC(=O)[C@]3(O)[C@@H]2C1 (stereo partly drawn) [Example 14, (2S,4aS,6aS,6bR,8aR,12aS,14aS,14bR)-11-cyano-14a-hydroxy-N-(2-hydroxybutyl)-2,4a,6a,6b,9,9,12a-heptamethyl-10,14-dioxo-1,2,3,4,4a,5,6,6a,6b,7,8,8a,9,10,12a,14,14a,14b-octadecahydropicene-2-carboxamide] | 53.7 nM |
| CC1(C)C(=O)C(C#N)=C[C@]2(C)C3=CC(=O)[C@]4(O)[C@@H]5C[C@@](C)(C(=O)n6ccnc6)CC[C@]5(C)CC[C@@]4(C)[C@]3(C)CC[C@@H]12 [Example 15, (4aR,6aR,6bS,8aS,11S,12aR,12bS,14bS)-12b-hydroxy-11-(1H-imidazol-1-ylcarbonyl)-4,4,6a,6b,8a,11,14b-heptamethyl-3,13-dioxo-3,4,4a,5,6,6a,6b,7,8,8a,9,10,11,12,12a,12b,13,14b-octadecahydropicene-2-carbonitrile] | 269 nM |
